Experimental data published in patent publication US20050054013A1, “Methods and products for identifying modulators of P2X7 receptor activity, and their use in the treatment of skeletal disorders” (Pfizer Inc, priority 2001, published 2005).

What was measured:
P2X7 receptor = target: T1, P2X7 receptor (Mus musculus, UniProt Q9Z1M0); experiment: P2X7 receptor-mediated YoPro Yellow uptake in peritoneal macrophages; format: cell-based; conditions: peritoneal macrophages from wild-type animals, 5 mM ATP, extracellular YoPro Yellow
T1 construct: endogenous in cells; host or cells: peritoneal macrophages isolated from wild-type animals
T1 sequence (Q9Z1M0 1-595): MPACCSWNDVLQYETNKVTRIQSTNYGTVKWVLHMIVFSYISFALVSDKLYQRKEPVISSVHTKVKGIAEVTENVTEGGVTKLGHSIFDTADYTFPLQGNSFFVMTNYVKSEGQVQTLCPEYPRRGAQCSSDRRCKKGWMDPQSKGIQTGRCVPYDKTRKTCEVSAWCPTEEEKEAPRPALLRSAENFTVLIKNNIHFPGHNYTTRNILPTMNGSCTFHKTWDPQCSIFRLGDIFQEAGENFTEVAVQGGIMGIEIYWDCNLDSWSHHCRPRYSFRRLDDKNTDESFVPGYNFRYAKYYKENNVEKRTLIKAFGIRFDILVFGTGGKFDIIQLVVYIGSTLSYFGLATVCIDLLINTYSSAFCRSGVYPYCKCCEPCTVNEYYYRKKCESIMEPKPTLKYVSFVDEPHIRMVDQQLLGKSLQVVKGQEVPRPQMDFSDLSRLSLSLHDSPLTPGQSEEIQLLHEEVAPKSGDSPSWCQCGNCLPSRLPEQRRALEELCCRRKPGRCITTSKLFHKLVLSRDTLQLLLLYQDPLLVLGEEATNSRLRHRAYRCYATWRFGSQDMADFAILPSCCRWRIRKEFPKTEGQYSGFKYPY
Experimental: This increase in fluorescence results from internalization of the dye molecules followed by their binding to DNA; when bound to DNA, the fluorescence intensity increases.
When assaying P2X7 receptor function using isolated macrophages, the peritoneal macrophages are washed with isotonic medium (15 mM HEPES, pH 7.2, 135 mM NaCl, 5 mM KCl, […], […]) by centrifugation and the resulting cell pellet is suspended in isotonic medium to achieve a final cell concentration of about 1×10^6 cells/ml. Fifty μl of this cell suspension is placed into the wells of a plate (e.g., Microfluor “B” U-bottom plate, Dynatech, Chantilly, Va.), and 50 μl of a fluorescent dye (e.g., 2 μM YoPro Yellow, Molecular Probes, Eugene, Oreg.) dissolved in the isotonic medium is added to each well. Test compounds or control vehicles are added to the wells with or without the addition of […]. Fluorescence is monitored as a function of time at […]. For YoPro Yellow dye, excitation is at 450 nm and emission is measured at 530 nm. Test compounds which stimulate P2X7 receptor activity increase fluorescence as compared to control samples that lack test compound.

other P2X receptors = conditions: cited from earlier work
IL-6 = experiment: In vivo cytokine production: IL-6 in peritoneal lavage of LPS-primed mice by ELISA; conditions: LPS-primed mice subsequently challenged with ATP; 4 hour time point
Experimental: Groups of mice are injected intraperitoneally (ip) with 1 μg of LPS. […] Samples of peritoneal lavages are spun down, and the supernatants are collected and tested for the presence of IL-1β and IL-6 using ELISAs (Amersham Life Sciences, Arlington Heights, Va. and Endogen, Woburn, Mass., respectively).
IL-1 signaling may lead to the production of other cytokines such as IL-6 (Allen et al. (2000), J. Exp. Med. 191:859-869). […] The animals are incubated for an additional period (e.g., 4 hours) and peritoneal lavages are collected several times during the course of the incubation and analyzed for cytokines by ELISA. […] By 4 hours, however, IL-6 levels recovered from the LPS-PBS treated animals returned to baseline.

Compound: Nc1ncnc2c1ncn2[C@@H]1O[C@H](COP(=O)(O)OP(=O)(O)OP(=O)(O)O)[C@@H](O)[C@H]1O [ATP, adenosine triphosphate]
- fluorescence intensity (YoPro Yellow internalization) (P2X7 receptor): time dependent increase in fluorescence intensity
- ATP concentrations at which receptors activate (other P2X receptors): less than or equal to 100 μM
- lavage fluid IL-6, peak value (IL-6): > 25 ng/mL
